Results on one molecule are retold here after publication PMC3241856 (ACS chemical biology, 2011).

This test concerns the target mu opioid receptor (MOR) (Rattus norvegicus, UniProt P33535). As to the kind of experiment: Stimulation of [35S]GTPγS binding, C6-MOR membranes. To be noted: 10 μM peptide compared to 10 μM DAMGO. The test is classed as biochemical. (In general: GTPγS is a poorly hydrolysed GTP analogue; its binding reports G protein activation.)

Chain of mu opioid receptor (MOR) (P33535 whole entry): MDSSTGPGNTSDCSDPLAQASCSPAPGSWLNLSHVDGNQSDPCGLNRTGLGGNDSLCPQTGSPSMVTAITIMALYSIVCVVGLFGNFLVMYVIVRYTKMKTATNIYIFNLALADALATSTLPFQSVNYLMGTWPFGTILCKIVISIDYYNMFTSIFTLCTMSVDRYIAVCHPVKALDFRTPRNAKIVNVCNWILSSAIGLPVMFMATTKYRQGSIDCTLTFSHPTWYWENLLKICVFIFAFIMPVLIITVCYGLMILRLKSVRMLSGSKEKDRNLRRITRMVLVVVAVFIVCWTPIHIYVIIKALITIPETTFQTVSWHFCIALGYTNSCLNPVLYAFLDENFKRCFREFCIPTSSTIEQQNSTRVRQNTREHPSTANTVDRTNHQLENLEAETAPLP

As to `NC(=O)[C@H](Cc1ccccc1)NC(=O)[C@H](Cc1ccccc1)NC(=O)[C@@H]1CCCN1C(=O)[C@@H](N)Cc1ccc(O)cc1` [endomorphin-2], the “MOR % max. stimulation of [35S]GTPγS binding” value is 49 ± 7%.
